Source: US20030162824A1, “Methods of treating or preventing a cardiovascular condition using a cyclooxygenase-1 inhibitor” (priority 2001, published 2003)
pIC50: −log10 of the molar value. Where “and” joins values, the source holds several entries; their conditions need not be identical. Equal entries are not always repeated.

Key:
[1] = test system: apoE knockout mice fed a 1% cholesterol diet; test: Effect of cyclooxygenase inhibition on the development of atherosclerosis in cholesterol-fed apoE knockout mice; settings: for extent of lesion development: aortae after 10 weeks, vehicle 25.8±4.5%
Method: The role of cyclooxygenase-1 and cyclooxygenase-2 on the development of atherosclerosis in apoE knockout mice fed a 1% cholesterol diet was evaluated. […] ApoE^−/− fed a normal chow (n=20) and wildtype littermates (n=40) were used as controls for the study. Twenty-four hour urine samples were collected and the aortae harvested following 10 weeks of treatment.

[2] = biological target: T1, hCox-2 (Homo sapiens, UniProt P35354); test: Evaluation of COX-2 activity in vitro (recombinant enzyme, PGE2 ELISA); type: biochemical
T1 construct: A 2.0 kb fragment containing the coding region of either human or murine COX-1 or human or murine COX-2; made in house; host or cells: SF9 insect cells (baculovirus, pVL1393)
T1 sequence (P35354 18-604): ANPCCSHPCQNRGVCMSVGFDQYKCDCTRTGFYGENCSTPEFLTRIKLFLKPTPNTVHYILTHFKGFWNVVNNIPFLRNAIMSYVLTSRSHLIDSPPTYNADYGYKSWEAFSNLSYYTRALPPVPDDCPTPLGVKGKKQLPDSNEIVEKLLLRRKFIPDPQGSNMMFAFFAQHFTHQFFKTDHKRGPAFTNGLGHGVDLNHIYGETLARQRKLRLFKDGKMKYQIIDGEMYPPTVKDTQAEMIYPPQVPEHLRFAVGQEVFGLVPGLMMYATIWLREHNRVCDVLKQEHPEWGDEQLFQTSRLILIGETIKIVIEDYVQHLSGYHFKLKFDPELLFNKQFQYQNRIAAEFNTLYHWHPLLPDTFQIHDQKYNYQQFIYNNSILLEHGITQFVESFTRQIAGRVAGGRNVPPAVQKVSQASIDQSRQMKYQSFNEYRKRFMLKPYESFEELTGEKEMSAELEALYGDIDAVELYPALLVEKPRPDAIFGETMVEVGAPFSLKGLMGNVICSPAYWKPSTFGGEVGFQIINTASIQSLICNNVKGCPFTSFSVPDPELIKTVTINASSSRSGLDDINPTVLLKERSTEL
Method: (§1) Recombinant baculoviruses were isolated by transfecting 4 μg of baculovirus transfer vector DNA into SF9 insect cells (2×10^8) along with 200 ng of linearized baculovirus plasmid DNA by the calcium phosphate method.
(§2) Recombinant viruses were purified by three rounds of plaque purification and high titer (10^7-10^8 pfu/mL) stocks of virus were prepared. For large scale production, SF9 insect cells were infected in 10 liter fermentors (0.5×10^6/mL) with the recombinant baculovirus stock such that the multiplicity of infection was 0.1. […] The homogenate was centrifuged at 10,000×G for 30 minutes, and the resultant supernatant was stored at −80° C. before being assayed for COX activity.
(§3) COX activity was assayed as PGE2 formed/μg protein/time using an ELISA to detect the prostaglandin released. CHAPS-solubilized insect cell membranes containing the appropriate COX enzyme were incubated in a potassium phosphate buffer (50 mM, pH 8.0) containing epinephrine, phenol, and heme with the addition of arachidonic acid (10 μM). Compounds were pre-incubated with the enzyme for 10-20 minutes prior to the addition of arachidonic acid. […] The PGE2 formed was measured by standard ELISA technology (Cayman Chemical).

[3] = biological target: T2, hCox-1 (Homo sapiens, UniProt P23219); test: Evaluation of COX-1 activity in vitro (recombinant enzyme, PGE2 ELISA); type: biochemical
T2 construct: A 2.0 kb fragment containing the coding region of either human or murine COX-1 or human or murine COX-2; made in house; host or cells: SF9 insect cells (baculovirus, pVL1393)
T2 sequence (P23219 24-599): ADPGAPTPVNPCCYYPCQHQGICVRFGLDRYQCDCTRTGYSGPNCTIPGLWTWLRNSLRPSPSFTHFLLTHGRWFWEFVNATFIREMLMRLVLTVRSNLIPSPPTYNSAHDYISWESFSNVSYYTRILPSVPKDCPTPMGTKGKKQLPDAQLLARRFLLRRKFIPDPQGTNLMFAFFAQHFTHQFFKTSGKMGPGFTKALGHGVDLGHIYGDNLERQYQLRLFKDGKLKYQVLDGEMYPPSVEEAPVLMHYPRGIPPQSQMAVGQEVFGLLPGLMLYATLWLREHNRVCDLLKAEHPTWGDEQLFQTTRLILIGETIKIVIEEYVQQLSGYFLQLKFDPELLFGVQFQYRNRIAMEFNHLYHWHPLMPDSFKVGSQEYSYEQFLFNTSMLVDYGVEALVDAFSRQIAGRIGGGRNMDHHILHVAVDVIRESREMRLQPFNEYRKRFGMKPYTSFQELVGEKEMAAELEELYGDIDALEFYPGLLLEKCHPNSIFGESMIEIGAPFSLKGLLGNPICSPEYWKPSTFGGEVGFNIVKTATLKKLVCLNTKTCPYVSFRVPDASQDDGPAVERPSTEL
Method: as §1, §2, §3

[4] = 10 weeks, COX-1 inhibitor 15 mg/kg daily, COX-2 inhibitor 6 mg/kg
[5] = COX-1 inhibitor 15 mg/kg daily, COX-2 inhibitor 6 mg/kg

Q: For `COc1ccc(-n2nc(C(F)(F)F)cc2-c2ccc(Cl)cc2)cc1`, which “CD41 staining of lesions (platelet deposition)” value [1, 4] is on record?
A: The value was “markedly attenuated”.

Q: `COc1ccc(-n2nc(C(F)(F)F)cc2-c2ccc(Cl)cc2)cc1` [Compound 1] was tested. Which “Urinary TXB2 excretion” value ([1]; 24 h urine after 10 weeks of treatment, COX-1 inhibitor 15 mg/kg daily, vehicle 20.7±4.02) did it give?
A: Its value is 2.63 ± 0.59 ng/mL.

Q: And the “extent of lesion development” value [1, 5]?
A: The value was 4.6±0.4%.

Q: `COc1ccc(-n2nc(C(F)F)cc2-c2ccc(Cl)cc2)cc1` [Compound 2, 5-(4-chlorophenyl)-3-(difluoromethyl)-1-(4-methoxyphenyl)pyrazole] was tested. Which pIC50 [2] did it give?
A: Its pIC50 is < 4.00.

Q: What about the pIC50 [3] of the same compound?
A: The pIC50 was > 6.86 and 7.68.

Q: With `COC(=O)c1cc(-c2ccc(Cl)cc2)n(-c2ccc(OC)cc2)n1` [Compound 3, 5-(4-chlorophenyl)-3-(methoxycarbonyl)-1-(4-methoxyphenyl)pyrazole] as the compound, how does the pIC50 [2] read?
A: Its pIC50 is < 4.00.

Q: What about the pIC50 [3] of the same compound?
A: Its pIC50 is 6.55.

Q: Which results are given for `COc1ccc(-n2nc(C(=O)O)cc2-c2ccc(Cl)cc2)cc1` [Compound 4, 3-carboxy-5-(4-chlorophenyl)-1-(4-methoxyphenyl)pyrazole]?
A: pIC50 [2]: < 4.00; pIC50 [3]: 4.25

Q: Which results are given for `FC(F)(F)c1cc(-c2ccccc2)n(-c2ccc(Cl)cc2)n1` [Compound 7, 1-(4-chlorophenyl)-5-phenyl-3-(trifluoromethyl)pyrazole]?
A: pIC50 [2]: < 3.00; pIC50 [3]: 7.07

Q: How did the pIC50 [2] turn out when `FC(F)(F)c1cc(-c2ccc(Cl)cc2)n(-c2ccccc2)n1` [Compound 9, 5-(4-chlorophenyl)-1-phenyl-3-(trifluoromethyl)pyrazole] was run?
A: The pIC50 was < 3.00.

Q: And the pIC50 [3]?
A: Its pIC50 is 6.91.

Q: `FC(F)(F)c1cc(-c2ccc(Br)cc2)n(-c2ccccc2)n1` [Compound 12, 5-(4-bromophenyl)-1-phenyl-3-(trifluoromethyl)pyrazole] was tested. Which pIC50 [2] did it give?
A: Its pIC50 is < 3.30.

Q: What about the pIC50 [3] of the same compound?
A: Its pIC50 is 6.36.

Q: With `FC(F)(F)c1cc(-c2cccc(Br)c2)n(-c2ccccc2)n1` [Compound 13] as the compound, how does the pIC50 [2] read?
A: The pIC50 was < 4.00.

Q: What about the pIC50 [3] of the same compound?
A: The pIC50 was 5.48.

Q: Which results are given for `FC(F)(F)c1cc(-c2ccc(I)cc2)n(-c2ccccc2)n1` [Compound 15, 5-(4-iodophenyl)-1-phenyl-3-(trifluoromethyl)pyrazole]?
A: pIC50 [2]: < 4.00; pIC50 [3]: 6.19

Q: With `Cc1ccc(-c2cc(C(F)(F)F)nn2-c2ccc(Br)cc2)cc1` [Compound 16, 1-(4-bromophenyl)-5-(4-methylphenyl)-3-(trifluoromethyl)pyrazole] as the compound, how does the pIC50 [2] read?
A: Its pIC50 is 6.37.

Q: What about the pIC50 [3] of the same compound?
A: The pIC50 was > 6.86.

Q: `COC(=O)c1nn(-c2ccc(OC)cc2)c2c1CCc1cc(OC)ccc1-2` [Compound 18] was tested. Which pIC50 [2] did it give?
A: The pIC50 was < 4.00.

Q: And the pIC50 [3]?
A: Its pIC50 is 6.35.

Q: `COc1ccc(-n2nc(C(F)F)cc2-c2ccc(SC)cc2)cc1` [Compound 19] was tested. Which pIC50 [2] did it give?
A: The pIC50 was < 4.00.

Q: What about the pIC50 [3] of the same compound?
A: The pIC50 was 6.90.

Q: `COc1ccc(-n2nc(CCC(=O)N(C)O)cc2-c2ccc(Cl)cc2)cc1` [Compound 20] was tested. Which pIC50 [2] did it give?
A: Its pIC50 is < 3.00.

Q: And the pIC50 [3]?
A: Its pIC50 is 7.57.

Q: With `O=[N+]([O-])c1ccc(-c2cc(C(F)F)nn2-c2ccc(F)cc2)cc1` [Compound 21] as the compound, how does the pIC50 [2] read?
A: Its pIC50 is 4.64.

Q: What about the pIC50 [3] of the same compound?
A: The pIC50 was 6.19.

Q: With `O=[N+]([O-])c1ccc(-n2nc(C(F)(F)F)cc2-c2ccc(Cl)cc2)cc1` [Compound 22] as the compound, how does the pIC50 [2] read?
A: The pIC50 was < 4.00.

Q: What about the pIC50 [3] of the same compound?
A: The pIC50 was 6.09.

Q: How did the pIC50 [2] turn out when `O=[N+]([O-])c1ccc(-n2nc(C(F)F)cc2-c2ccc(Cl)cc2)cc1` [Compound 23] was run?
A: The pIC50 was < 4.00.

Q: And the pIC50 [3]?
A: Its pIC50 is 6.17.

Q: How did the pIC50 [3] turn out when `NS(=O)(=O)c1ccc(-n2nc(C(=O)O)cc2-c2ccccc2)cc1` [Compound 24] was run?
A: Its pIC50 is ≥ 6.86.

Q: Which results are given for `COC(=O)c1ccc(-n2nc(C(F)(F)F)cc2-c2ccc(C)cc2)cc1` [Compound 26]?
A: pIC50 [2]: < 4.00; pIC50 [3]: 6.51

Q: With `COc1ccc2c(c1)CSc1c(C(F)(F)F)nn(-c3ccc(Cl)cc3)c1-2` [Compound 27] as the compound, how does the pIC50 [2] read?
A: The pIC50 was < 4.00.

Q: What about the pIC50 [3] of the same compound?
A: The pIC50 was 6.85.

Q: What does the source list for `COc1ccc(-c2cc(C(F)F)nn2-c2ccc(Cl)cc2)cc1F` [Compound 28]?
A: pIC50 [2]: 4.64; pIC50 [3]: 6.19

Q: With `COc1ccc(-n2nc(CO[N+](=O)[O-])cc2-c2ccc(Cl)cc2)cc1` [Compound 29] as the compound, how does the pIC50 [3] read?
A: Its pIC50 is 6.62.

Q: What does the source list for `Cc1ccc(-c2cc(C(F)(F)F)nn2-c2ccc(C(F)(F)F)cc2)cc1` [Compound 30]?
A: pIC50 [2]: < 4.00; pIC50 [3]: 6.97

Q: With `COc1ccc(-c2cc(C(F)(F)F)nn2-c2ccc(C)cc2)cc1C` [Compound 31] as the compound, how does the pIC50 [2] read?
A: Its pIC50 is 4.17.

Q: What about the pIC50 [3] of the same compound?
A: Its pIC50 is 6.54.

Q: What does the source list for `COc1ccc(-n2nc(C(=O)Nc3ccc(N=[N+]=[N-])cc3)cc2-c2ccc(Cl)cc2)cc1` [Compound 32]?
A: pIC50 [2]: ≤ 3.00; pIC50 [3]: 7.92

Q: Which results are given for `NS(=O)(=O)c1ccc(-n2nc(C(F)(F)F)cc2-c2ccc(Cl)cc2)cc1` [selective COX-2 inhibitor, 4-[5-(4-chlorophenyl)-3-(trifluoromethyl)-1H-pyrazol-1-yl]benzenesulfonamide, reference compound]?
A: CD41 staining of lesions (platelet deposition) [1, 4]: no effect; effect on TXB2 excretion (in words) ([1]; 10 weeks, COX-2 inhibitor 6 mg/kg): no effect; extent of lesion development [1, 5]: 27.9±1.8%
